The target of one test is rat NR1/NR2B receptor (Rattus norvegicus (Rat), UniProt P35439+Q00960). Kind of test: NR2B binding assay: inhibition of specific [3H]-Ifenprodil binding to the rat NR1/NR2B receptor. The conditions noted are these: [3H]-Ifenprodil binding, rat brain membranes. As to the method: Biological Assays Inhibition of Specific Binding to the Rat NR1/NR2B Receptor
Male Wistar rats (180 to 200 g) were killed by suffocation in a CO2 chamber for two minutes. Whole brains without cerebellum were removed and dissected on ice, placed into closed vials and stored at −70° C.
Membrane fractions were prepared and tested using standard techniques. At the time of the assay, 1 g of the brains was placed into 25 ml of 50 mM Tris/10 mM EDTA buffer, pH 7.1, (25 vol. per g of original tissue) and homogenized for 30 sec at 20000 rpm with an Ultraturrax T25 (Jahnke & Kunkel, IKA-Labortechnik, Staufen, Germany).
The supernatant was discarded and the pellet was homogenized on ice for 30 sec at 20000 rpm with an Ultraturrax and again centrifuged at 48000 g for 30 minutes at 4° C. The resultant pellet was resuspended in 25 ml of 50 mM Tris/10 mM EDTA buffer, homogenized for 30 sec with an Ultraturrax, aliquoted, frozen at −70° C. and stored until use.
After thawing on the day of the assay, a 5 ml membrane aliquot was centrifuged at 48000 g for 30 min at 4° C. The pellet was resuspended in 5 ml of 5 mM Tris/1 mM EDTA buffer, pH 7.4, homogenized for 30 sec at 20000 rpm with an Ultraturrax and centrifuged at 48000 g for 30 min at 4° C. This was repeated twice. The final pellet was homogenized in 5 ml of 5 mM Tris/1 mM EDTA buffer at 4° C. with an Ultraturrax and used for the Ifenprodil-binding assay as described in the following.
Nonspecific binding was estimated in the presence of […] CP101.606. The samples were incubated for 60 min. at 4° C.
The incubation was terminated by filtration of the membrane preparations using Filtermat B (Pharmacia, Uppsala Sweden) and a Micro Cell Harvester (Skatron, Lier, Norway). The Filtermat B had been presoaked with 1% polyethylene imine and carefully washed with 50 mM Tris/HCl-buffer pH 7.7 after the filtration to separate free and bound radioactivity.
The optimal amount of membrane preparation in the assay was determined and optimized for each membrane preparation separately before the test.
For pipetting of the incubation mixture the robot Biomek2000 (Fa. Beckman) was used.
For determination of IC50 values the Hill-plot, 2-parameter-model was used.

In a further test the target is hERG receptor (Homo sapiens (Human), UniProt Q12809). Kind of test: HERGBD: inhibition of specific [3H]-Dofetilide binding to the hERG receptor. The method, then:
Inhibition of Specific Binding to the hERG—Receptor (HERGBD)
A HEK cell line with stable transfected human ERG receptor was used for the assay. The cells were grown adherently and maintained in DULBECCOS' MEM medium with 10% FBS, 1% non-essential amino acids, 1% Penicillin/Streptomycin and 400 μg/ml G418 (Calbiochem).
For binding assays and membrane preparations the cell culture medium was removed, cells were washed with PBS. Crude membranes for radioligand binding experiments were prepared by scraping the cells off the dishes in ice cold 20 mM HEPES/0.1 mM KCl/pH 7.2. The cell suspension was homogenized on ice (Ultra turrax, 3×20 sec.) and the homogenate was spun for 10 min (1° C., 1000 g, OPTIMA, SW28, 2800 U/min). The supernatant was than centrifuged for 40 min at 100000 g (1° C., OPTIMA, SW28, 23000 U/min). The membrane pellet was re-suspended in 20 mM HEPES/0.1 mM KCl pH 7.2, frozen and stored at −80° C.
After thawing on the day of the assay, the membrane suspension was diluted further with 20 mM HEPES/0.1 mM KCl/pH 7.2.
The incubation mixture of 200 μl contained 1.5 nmol/l 3H-Dofetilide, optimized amount of membrane preparation, 20 mM HEPES/0.1 mM KCl/(pH 7.2) and inhibitor in 1% DMSO. Nonspecific binding was estimated in the presence of […] Dofetilide. The samples were incubated for 90 min. at RT.
Binding was terminated by filtration of the incubated membrane preparations using Filtermat B (Pharmacia, Uppsala Sweden) and a Micro Cell Harvester (Skatron, Lier, Norway). The Filtermat B had been presoaked with 1% polyethylen imine and carefully washed with 0.05 M Tris/HCl-buffer pH=7.7 after the filtration to separate free and bound radioactivity. The filters were counted in a scintillation counter (Betaplate 1205, Berthold, Wildbad, Germany) in order to determine the specific binding of [^3H]-Dofetilide.
The optimal amount of membrane preparation in the assay was determined and optimized for each membrane preparation separately in front of using the membranes in compound testing.
For pipetting of the incubation mixture we routinely use the robot Biomek2000 (Fa. Beckman).
On the technique in general: hERG is a cardiac potassium channel; its block is linked to QT prolongation.

For test [1], the target named is human NR1/NR2B ion channels (Homo sapiens (Human), UniProt Q05586+Q13224). In words: HNR2BC: calcium influx assay on cloned human NR1/NR2B ion channels expressed in HEK cells. It is filed as cell-based. The conditions noted are these: HEK cells with hNR1/NR2B, 100 μM glutamate + 100 μM glycine, 3 parameter plot. As to the method: HNR2BC: Effects of Test Articles on Cloned Human NR1/NR2B Ion Channels Expressed in Mammalian Cells
human NR1/NR2B ion channels, sequence (Q13224 27-1484, other chains not shown): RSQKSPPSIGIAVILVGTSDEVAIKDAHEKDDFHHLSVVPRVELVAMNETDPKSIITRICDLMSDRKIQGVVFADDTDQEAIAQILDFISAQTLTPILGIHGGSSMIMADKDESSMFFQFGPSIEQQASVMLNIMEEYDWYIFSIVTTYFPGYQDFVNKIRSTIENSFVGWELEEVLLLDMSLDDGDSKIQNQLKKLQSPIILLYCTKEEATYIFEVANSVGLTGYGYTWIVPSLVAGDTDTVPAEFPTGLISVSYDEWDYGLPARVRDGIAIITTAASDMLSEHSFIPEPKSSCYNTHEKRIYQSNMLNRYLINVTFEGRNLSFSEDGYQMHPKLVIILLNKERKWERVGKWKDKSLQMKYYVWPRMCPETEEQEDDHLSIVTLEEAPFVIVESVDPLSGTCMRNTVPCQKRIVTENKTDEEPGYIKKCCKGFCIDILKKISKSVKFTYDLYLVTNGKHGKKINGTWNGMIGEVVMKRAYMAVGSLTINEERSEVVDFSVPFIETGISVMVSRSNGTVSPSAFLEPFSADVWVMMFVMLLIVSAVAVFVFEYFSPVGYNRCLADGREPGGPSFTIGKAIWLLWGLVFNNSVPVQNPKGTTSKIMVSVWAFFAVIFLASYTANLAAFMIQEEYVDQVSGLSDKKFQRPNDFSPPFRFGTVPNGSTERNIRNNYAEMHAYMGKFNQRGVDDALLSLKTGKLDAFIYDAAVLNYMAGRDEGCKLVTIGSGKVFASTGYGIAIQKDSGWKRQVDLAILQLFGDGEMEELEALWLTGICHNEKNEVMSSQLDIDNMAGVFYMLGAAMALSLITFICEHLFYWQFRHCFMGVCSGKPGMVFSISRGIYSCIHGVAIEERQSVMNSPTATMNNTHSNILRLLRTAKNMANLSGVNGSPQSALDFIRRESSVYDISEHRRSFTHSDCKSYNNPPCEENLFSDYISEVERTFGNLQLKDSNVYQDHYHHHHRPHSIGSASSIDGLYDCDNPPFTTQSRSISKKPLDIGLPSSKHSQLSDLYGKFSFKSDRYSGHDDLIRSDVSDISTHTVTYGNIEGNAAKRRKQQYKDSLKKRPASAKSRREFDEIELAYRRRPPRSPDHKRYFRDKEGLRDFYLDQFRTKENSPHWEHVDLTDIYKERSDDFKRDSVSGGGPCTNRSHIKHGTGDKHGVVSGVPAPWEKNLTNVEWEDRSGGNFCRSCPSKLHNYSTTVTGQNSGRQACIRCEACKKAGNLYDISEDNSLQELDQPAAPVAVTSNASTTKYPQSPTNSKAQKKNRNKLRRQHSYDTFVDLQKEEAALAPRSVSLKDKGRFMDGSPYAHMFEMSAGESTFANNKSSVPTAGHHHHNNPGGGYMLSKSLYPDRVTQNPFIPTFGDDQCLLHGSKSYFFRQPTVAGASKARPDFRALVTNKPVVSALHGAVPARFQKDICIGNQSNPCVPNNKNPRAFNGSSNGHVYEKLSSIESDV
The ability of test compounds to act as an antagonist of NR1/NR2B was evaluated with a calcium influx assay (Calcium 5 Assay Kit, Molecular Devices).
For the antagonist assessment, NR1/NR2B was activated with the positive control agonist (Mg^2+-free HBPS+100 μM glutamic acid+100 μM glycine).
A HEK cell line, stable transfected with hNR1/NR2B was used. This tetracycline inducible cell line is transfected with GRIN1 (GeneBank accession number NM_007327.2) and GRIN2B (GeneBank accession number NM_000834.3.). The cells were cultured in cell culture flasks with DMEM/F12 supplemented with 10% FCS, 1% PenStrep and a selection of additional antibiotics.
Forty-Eight (48) hours before the assay the cells were plated into 96-well black well, flat clear bottom microtiter plates at a density of 50000 cells/well. Twenty-Four (24) hours later the receptor expression was induced by the addition of 1 μg/ml tetracycline in the presence of 2 mM ketamine and 200 μM 7-CKA. After 24 h of receptor induction the plates were used for the assay.
The medium was removed and the cells were loaded with 200 μl loading buffer (Molecular Devices) in Mg2+-free HBPS containing 100 μM 7-CKA at 37° C. for one (1) hour.
The test compounds were then solubilized in 100% DMSO and diluted to yield eight (8) different concentrations in 100% DMSO. A 96 well drug plate was prepared by diluting with water and glycine/glutamate to a 5-fold of final test concentration. Fluorescence intensity of the cells in the plate was measured in a FlexStation using an excitation wavelength of 485 nm and an emission wavelength of 525 nm. Twenty (20) seconds after starting the recordings the compounds together with the agonists glycine (100 μM) and glutamate (100 μM) were added into the wells and the fluorescence measured for ninety (90) seconds in summary.
The IC50 values provided in the paragraph below were determined using a 3 parameter plot.

Setting [2] is: [3H]-Dofetilide binding, membranes of HEK cells with human ERG receptor, read-out: IC50.

Counter-ions that a name gives are not always drawn. Like-named read-outs stand apart in the source and are kept apart here.

hERG receptor, sequence (Q12809 whole entry): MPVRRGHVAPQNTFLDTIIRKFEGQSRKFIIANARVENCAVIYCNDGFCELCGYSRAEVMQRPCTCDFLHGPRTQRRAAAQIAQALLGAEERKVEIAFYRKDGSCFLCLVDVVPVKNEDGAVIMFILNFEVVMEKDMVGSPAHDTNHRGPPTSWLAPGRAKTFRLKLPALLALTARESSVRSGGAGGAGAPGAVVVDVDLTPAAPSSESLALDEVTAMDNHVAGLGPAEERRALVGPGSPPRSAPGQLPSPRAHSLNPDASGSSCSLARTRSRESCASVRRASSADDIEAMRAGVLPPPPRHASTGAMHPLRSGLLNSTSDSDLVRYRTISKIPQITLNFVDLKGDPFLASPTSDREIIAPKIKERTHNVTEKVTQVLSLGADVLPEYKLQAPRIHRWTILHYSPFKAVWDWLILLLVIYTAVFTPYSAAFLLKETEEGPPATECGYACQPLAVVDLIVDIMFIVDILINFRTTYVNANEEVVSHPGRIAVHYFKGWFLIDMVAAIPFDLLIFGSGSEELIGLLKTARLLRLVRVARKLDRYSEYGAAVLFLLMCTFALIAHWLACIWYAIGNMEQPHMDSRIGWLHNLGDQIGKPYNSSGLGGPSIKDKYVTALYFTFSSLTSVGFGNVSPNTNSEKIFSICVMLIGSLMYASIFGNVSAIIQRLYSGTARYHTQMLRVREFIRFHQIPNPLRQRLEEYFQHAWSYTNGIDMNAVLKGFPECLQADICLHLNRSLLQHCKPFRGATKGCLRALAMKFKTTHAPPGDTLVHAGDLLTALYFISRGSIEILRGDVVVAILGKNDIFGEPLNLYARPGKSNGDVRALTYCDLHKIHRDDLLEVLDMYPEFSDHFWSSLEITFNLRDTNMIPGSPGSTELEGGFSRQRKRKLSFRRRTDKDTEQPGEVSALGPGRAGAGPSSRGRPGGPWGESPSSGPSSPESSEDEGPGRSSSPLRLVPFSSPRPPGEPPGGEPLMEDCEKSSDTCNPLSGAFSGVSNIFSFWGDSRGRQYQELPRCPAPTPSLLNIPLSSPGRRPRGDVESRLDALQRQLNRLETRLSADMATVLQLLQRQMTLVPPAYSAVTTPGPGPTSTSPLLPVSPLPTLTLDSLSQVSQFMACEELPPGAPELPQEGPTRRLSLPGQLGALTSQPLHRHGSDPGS
rat NR1/NR2B receptor, sequence (Q00960 27-1482, other chains not shown): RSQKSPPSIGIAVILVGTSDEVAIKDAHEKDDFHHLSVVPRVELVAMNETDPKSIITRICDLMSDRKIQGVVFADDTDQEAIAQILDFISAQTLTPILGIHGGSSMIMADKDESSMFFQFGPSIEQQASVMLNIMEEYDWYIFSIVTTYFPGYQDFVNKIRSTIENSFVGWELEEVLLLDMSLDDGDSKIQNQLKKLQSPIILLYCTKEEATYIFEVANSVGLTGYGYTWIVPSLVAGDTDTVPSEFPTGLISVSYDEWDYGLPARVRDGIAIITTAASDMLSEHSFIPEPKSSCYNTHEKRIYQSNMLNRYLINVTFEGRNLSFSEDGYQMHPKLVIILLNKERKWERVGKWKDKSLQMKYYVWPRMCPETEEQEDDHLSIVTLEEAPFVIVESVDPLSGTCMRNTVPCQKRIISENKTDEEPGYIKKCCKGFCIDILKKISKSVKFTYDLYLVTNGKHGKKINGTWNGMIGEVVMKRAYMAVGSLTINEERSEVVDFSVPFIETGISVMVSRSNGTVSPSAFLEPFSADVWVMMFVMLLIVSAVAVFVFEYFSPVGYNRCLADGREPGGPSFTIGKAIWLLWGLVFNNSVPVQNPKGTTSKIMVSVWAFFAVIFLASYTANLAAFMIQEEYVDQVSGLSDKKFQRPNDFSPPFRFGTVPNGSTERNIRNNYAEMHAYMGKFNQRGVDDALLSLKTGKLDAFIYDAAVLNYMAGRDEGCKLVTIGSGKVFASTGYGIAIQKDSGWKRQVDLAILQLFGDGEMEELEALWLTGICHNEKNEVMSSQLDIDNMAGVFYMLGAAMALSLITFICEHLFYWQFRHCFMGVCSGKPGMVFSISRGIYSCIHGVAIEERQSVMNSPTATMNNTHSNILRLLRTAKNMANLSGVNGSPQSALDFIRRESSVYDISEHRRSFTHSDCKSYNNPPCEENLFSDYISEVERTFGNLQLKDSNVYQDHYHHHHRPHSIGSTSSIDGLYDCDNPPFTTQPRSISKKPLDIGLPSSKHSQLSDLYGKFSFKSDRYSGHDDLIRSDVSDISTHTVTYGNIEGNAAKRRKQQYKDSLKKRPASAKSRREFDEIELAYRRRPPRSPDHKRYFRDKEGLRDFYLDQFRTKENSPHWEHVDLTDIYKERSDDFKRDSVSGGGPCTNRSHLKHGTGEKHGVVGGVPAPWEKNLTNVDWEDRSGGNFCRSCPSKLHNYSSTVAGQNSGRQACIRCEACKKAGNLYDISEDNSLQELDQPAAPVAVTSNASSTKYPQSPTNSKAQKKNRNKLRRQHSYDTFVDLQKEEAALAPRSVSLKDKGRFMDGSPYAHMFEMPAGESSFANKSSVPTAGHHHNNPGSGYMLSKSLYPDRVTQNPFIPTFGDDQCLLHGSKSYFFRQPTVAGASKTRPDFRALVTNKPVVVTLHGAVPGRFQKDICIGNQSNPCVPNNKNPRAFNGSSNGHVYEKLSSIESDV

Regarding `Fc1ccc(-c2cnn(Cc3cc[nH]n3)c2)cc1C(F)F` [Example 35, 4-[3-(Difluoromethyl)-4-fluoro-phenyl]-1-(1H-pyrazol-3-ylmethyl)pyrazole], the IC50 was 0.0176 µM on rat NR1/NR2B receptor, 22.6 µM at hERG receptor and 0.69 µM in test [1].
For `CCc1[nH]ncc1Cn1cc(-c2ccc(Cl)c(OC(F)F)c2)cn1` [Example 17, 4-[4-Chloro-3-(difluoromethoxy)phenyl]-1-[(5-ethyl-1H-pyrazol-4-yl)methyl]pyrazole], the IC50 in test [1] was determined as 3.7 µM.
`CCc1cc(Cn2cc(-c3ccc(F)c(C(F)F)c3)cn2)n[nH]1` [Example 40, 3-[[4-[3-(Difluoromethyl)-4-fluoro-phenyl]pyrazol-1-yl]methyl]-5-ethyl-1H-pyrazole]: the results for the IC50 (on rat NR1/NR2B receptor; at hERG receptor; in test [1]) were 0.047 µM, 23.3 µM and 3.3 µM, respectively.
For `Cc1cc(Cn2cc(-c3ccc(Cl)cc3)cn2)n(C)n1` [Example 74, 5-[[4-(4-Chlorophenyl)pyrazol-1-yl]methyl]-1,3-dimethyl-pyrazole], the values for the IC50 (on rat NR1/NR2B receptor; at hERG receptor; in test [1]) were 6.06 µM, above 100 µM and 51 µM, respectively.
Turning to `CCc1c[nH]nc1Cn1cc(-c2ccc(F)c(C(F)F)c2)cn1` [Example 92, 3-[[4-[3-(difluoromethyl)-4-fluoro-phenyl]pyrazol-1-yl]methyl]-4-ethyl-1H-pyrazole], the values for the IC50 (at rat NR1/NR2B receptor; at hERG receptor (setting [2]); in test [1]) were 0.0712 µM, 27.4 µM and 11.9 µM, respectively.
Turning to `CCc1c[nH]nc1Cn1cc(-c2ccc(F)c(OC(F)F)c2)cn1` [Example 91, 3-[[4-[3-(difluoromethoxy)-4-fluoro-phenyl]pyrazol-1-yl]methyl]-4-ethyl-1H-pyrazole Succinate], the IC50 was determined as 0.0438 µM at rat NR1/NR2B receptor, 48.9 µM at hERG receptor and 1.25 µM in test [1].
As for `FC(F)Oc1cc(-c2cnn(Cc3cc[nH]n3)c2)ccc1Cl` [Example 6], in test [1], the IC50 worked out at 0.23 µM.
With `Cn1cc(Cn2cc(-c3ccc(Cl)c(OC(F)F)c3)cn2)cn1` [Example 4, 4-[4-Chloro-3-(difluoromethoxy)phenyl]-1-[(1-methylpyrazol-4-yl)methyl]pyrazole], the IC50 in test [1] came out at 1.75 µM.
Same read-out and setting: as for `CCc1[nH]ncc1Cn1cc(-c2ccc(F)c(OC(F)F)c2)cn1` [Example 20, 4-[3-(difluoromethoxy)-4-fluoro-phenyl]-1-[(5-ethyl-1H-pyrazol-4-yl)methyl]pyrazole Tartrate], the figure is 5.97 µM.
`Cn1nccc1-n1cc(-c2ccc(Cl)c(Cl)c2)cn1` [Example 100, 4-(3,4-dichlorophenyl)-2′-methyl-2′H-1,3′-bipyrazole]: the values for the IC50 on rat NR1/NR2B receptor and at hERG receptor (setting [2]) were 3.17 µM and 60.3 µM, respectively.
`Cn1ccc(Cn2cc(-c3ccc(Cl)c(C(F)F)c3)cn2)n1` [Example 24, 3-[[4-[4-chloro-3-(difluoromethyl)phenyl]pyrazol-1-yl]methyl]-1-methyl-pyrazole]: the IC50 on rat NR1/NR2B receptor worked out at 0.41 µM; on hERG receptor (setting [2]) it was 4.89 µM.
Regarding `CCn1cc(CCn2cc(-c3ccc(Cl)c(OC(F)F)c3)cn2)cn1` [Example 10, 4-[4-Chloro-3-(difluoromethoxy)phenyl]-1-[2-(1-ethylpyrazol-4-yl)ethyl]pyrazole], the values for the IC50 on rat NR1/NR2B receptor and at hERG receptor were 0.25 µM and 18.4 µM, respectively.
For the molecule `FC(F)c1cc(-c2cnn(Cc3cc[nH]n3)c2)ccc1Cl` [Example 26, 4-[4-Chloro-3-(difluoromethyl)phenyl]-1-(1H-pyrazol-3-ylmethyl)pyrazole], in test [1], the IC50 came to 0.89 µM.
Regarding `CS(=O)(=O)c1cccc(-c2cnn(Cc3cc[nH]n3)c2)c1` [Example 70, 4-(3-methylsulfonylphenyl)-1-(1H-pyrazol-3-ylmethyl)pyrazole Succinate], the results for the IC50 at rat NR1/NR2B receptor and on hERG receptor were 2.69 µM and above 100 µM, respectively.
On to `Cn1ccc(Cn2cc(-c3ccc(Cl)c(Cl)c3)cn2)n1` [Example 63, 3-[[4-(3,4-dichlorophenyl)pyrazol-1-yl]methyl]-1-methyl-pyrazole], for which the half-maximal inhibitory concentration (IC50) was 0.612 µM on rat NR1/NR2B receptor and 10.8 µM at hERG receptor (setting [2]).
Consider `Cc1cc(-c2cnn(Cc3ccn(C)n3)c2)ccc1Cl` [Example 58, 3-[[4-(4-chloro-3-methyl-phenyl)pyrazol-1-yl]methyl]-1-methyl-pyrazole Succinate], for which the figures for the IC50 on rat NR1/NR2B receptor and at hERG receptor (setting [2]) were 0.668 µM and 12.6 µM, respectively.
Consider `Cc1cc(Cn2cc(-c3ccc(Cl)c(C(F)(F)F)c3)cn2)n(C)n1` [Example 29, 5-[[4-[4-chloro-3-(trifluoromethyl)phenyl]pyrazol-1-yl]methyl]-1,3-dimethyl-pyrazole Succinate], for which the IC50 on rat NR1/NR2B receptor is 2.54 µM; at hERG receptor it was 17.9 µM.
Turning to `Cc1cc(Cn2cc(-c3ccc(Cl)c(OC(F)F)c3)cn2)[nH]n1` [Example 13, 4-[4-Chloro-3-(difluoromethoxy)phenyl]-1-[(3-methyl-1H-pyrazol-5-yl)methyl]pyrazole], the values for the IC50 at rat NR1/NR2B receptor and at hERG receptor were 0.0221 µM and 37 µM, respectively.
For `Cc1n[nH]c(C)c1CCn1cc(-c2ccc(F)c(C(F)F)c2)cn1` [Example 36, 4-[2-[4-[3-(Difluoromethyl)-4-fluoro-phenyl]pyrazol-1-yl]ethyl]-3,5-dimethyl-1H-pyrazole], in that order: 0.424 µM and 29.6 µM.
For the molecule `CCCc1cc(Cn2cc(-c3ccc(Cl)c(OC(F)F)c3)cn2)n[nH]1` [Example 15, 3-[[4-[4-Chloro-3-(difluoromethoxy)phenyl]pyrazol-1-yl]methyl]-5-propyl-1H-pyrazole], the figures for the half-inhibitory concentration (IC50) at rat NR1/NR2B receptor and on hERG receptor (setting [2]) were 0.163 µM and 7.93 µM, respectively.

Broadly, the IC50 is the point on the concentration scale where inhibition reaches its midpoint.
